For data set [1], the target named is Cathepsin B (Homo sapiens, UniProt P07858). As to the kind of experiment: biochemical. The method, then: (§1) RTD-1 inhibition of Cat B (BPS Bioscience, San Diego, CA) and Cats C, H, K, L, S, and V (R & D Systems) was analyzed in a 96 well format with enzyme-specific substrates per manufacturer’s instructions and as described in Table 1. The activity of each enzyme was determined in the presence of 0 to 50 μg/ml RTD-1.
(§2) Inhibition of MMPs by RTD-1 was performed as described, incubating each enzyme with 0–100 μg/ml of RTD-1. IC50 values were calculated by GraphPad Prism 5.01 (GraphPad Software, San Diego, CA) utilizing a non-linear curve fit of log [inhibitor] versus response with variable slope.

Data set [2] concerns the target Cathepsin C (Homo sapiens, UniProt P53634). The data set is described as follows: biochemical. The method, then: as §1, §2
Data set [3] addresses Cathepsin H (Homo sapiens, UniProt P09668). The data set is described as follows: biochemical. As for the experimental part:
as §1, §2

For data set [4], the target named is Cathepsin K (Homo sapiens, UniProt P43235). The data set is described as follows: biochemical. As for the experimental part: as §1, §2
Data set [5] deals with Cathepsin L (Homo sapiens, UniProt P07711). The data set is described as follows: biochemical. The method, then:
as §1, §2

The target in data set [6] is Cathepsin S (Homo sapiens, UniProt P25774). The data set is described as follows: biochemical. As for the experimental part:
as §1, §2

Data set [7] addresses Cathepsin V (Homo sapiens, UniProt O60911). As to the kind of experiment: biochemical. As for the experimental part:
as §1, §2

Data set [8] addresses MMP-1 (Homo sapiens, UniProt P03956). As to the kind of experiment: biochemical. The method, then: as §2
For data set [9], the target named is MMP-13 (Homo sapiens, UniProt P45452). The data set is described as follows: biochemical. The method, then:
as §2

Data set [10] deals with MMP-14 (Homo sapiens, UniProt P50281). As to the kind of experiment: biochemical. As for the experimental part: as §2
The target of data set [11] is MMP-2 (Homo sapiens, UniProt P08253). The data set is described as follows: biochemical. The method, then: as §2
The target of data set [12] is MMP-3 (Homo sapiens, UniProt P08254). As to the kind of experiment: biochemical. As for the experimental part:
as §2

Data set [13] deals with MMP-8 (Homo sapiens, UniProt P22894). The data set is described as follows: biochemical. The method, then:
as §2

Data set [14] deals with MMP-9 (Homo sapiens, UniProt P14780). The data set is described as follows: biochemical. As for the experimental part: as §2
The nature of data set [15]: in vivo. The note with it: plasma. As for the experimental part:
Eight to 12-week old male Sprague Dawley rats (Harlan) were fitted with a surgically implanted jugular vein catheter for sequential blood collection (Culex NxT Automated In Vivo Sampling System; BASi, West Lafayette, IN), and monitored daily. RTD-1 dissolved in saline was injected subcutaneously at 5 mg/kg to 4 animals. Approximately 200 μl of blood was collected before peptide administration and at 0.25, 0.5, 1, 2, 4, 6, 8, 12, 18, 24, 30, 36, 48, 60, and 72 h after RTD-1 injection. Blood was collected into vials containing K3EDTA and plasma was collected after centrifugation. Plasma concentrations of RTD-1 were determined after solid phase extraction (SPE) by weak cation exchange (Oasis WCX, Waters, Milford, MA) and quantitation by C18 RP-UPLC, photodiode array (PDA) detection, and electrospray-ionization mass spectrometry (ESI-MS). Chromatography was performed on an Acquity H-class UPLC with an analytical PDA detector using Empower 3 software (Waters). Quantitative mass spectrometry was performed on post PDA eluent using a Micromass Quattro Ultima mass spectrometer with MassLynx 4.1 (Waters). Pharmacokinetic analysis was performed using parametric population modeling with maximum likelihood estimation via the EM algorithm with sampling (MLEM) as implemented in the ADAPT 5 (Version 5.0.49) PK/PD Systems Analysis Software (Biomedical Simulations Resource, University of Southern California).

Data set [16] relates to anti-RTD-1 Ig. As to the kind of experiment: RTD-1 immunogenicity analysis (dot immunoblot). The class given is in vivo, DA and Sprague Dawley rats. The note with it: 8–42 s.c. injections of 5 mg/kg; serum or plasma. As for the experimental part:
Adult DA or Sprague-Dawley rats were challenged s.c. with 5 mg/kg RTD-1 every day (15–42 injections), or every other day (8 injections). Several animals were boosted 2 months later, prior to serum or plasma collection. Immune responses were analyzed by dot blot on nitrocellulose membranes as described in legend to the figure.

The subject of data set [17] is joint IL-1β. As to the kind of experiment: Joint tissue cytokine analysis (IL-1β ELISA). Type of data set: in vivo, rat. The note with it: 5 mg/kg s.c. once a day for four days, PIA rats AS ≥ 3; ELISA of joint extract; P = 0.0054. The method, then: Saline (control) and RTD-1 (5 mg/kg, s.c., qd) treated PIA rats were euthanized 4 days after disease onset (AS ≥ 3). The ankle joints and feet were snap frozen in liquid N2 and pulverized with mortar and pestle as described. One gram of tissue powder was extracted with 5 ml of ice cold 10 mM sodium phosphate, 150 mM NaCl, pH 7.4 (PBS) containing protease inhibitor tablets (cOmplete ULTRA with EDTA; Roche Diagnostics GmbH, Mannheim, Germany). Samples were vortexed for 30 seconds and extracts clarified by centrifugation. Supernatant IL-1β was quantified by ELISA (Life Technologies, Grand Island, NY).

For data set [18] the following is noted: administered subcutaneously; this study and ref 9.
For data set [19] the following is noted: cited from earlier work.
The mark [20] stands for this setting: male, Sprague Dawley, rat, sc, 5 mg/kg.
[21] abbreviates: single 5 mg/kg s.c., male Sprague Dawley rats, n = 4, SPE, RP-UPLC/ESI-MS, 2-compartment population model.

Bridge positions count the residues as written; N and C are the ends. Peptide text beside a SMILES is read from it.

Cathepsin K, sequence (P43235 115-329, species assumed): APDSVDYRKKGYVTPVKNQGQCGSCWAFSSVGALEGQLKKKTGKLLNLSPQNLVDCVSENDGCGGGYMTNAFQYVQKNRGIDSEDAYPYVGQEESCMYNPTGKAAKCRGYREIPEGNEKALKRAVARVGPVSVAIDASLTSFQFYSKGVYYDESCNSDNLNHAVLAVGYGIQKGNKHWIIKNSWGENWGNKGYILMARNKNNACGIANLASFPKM
MMP-9, sequence (P14780 94-707, species assumed): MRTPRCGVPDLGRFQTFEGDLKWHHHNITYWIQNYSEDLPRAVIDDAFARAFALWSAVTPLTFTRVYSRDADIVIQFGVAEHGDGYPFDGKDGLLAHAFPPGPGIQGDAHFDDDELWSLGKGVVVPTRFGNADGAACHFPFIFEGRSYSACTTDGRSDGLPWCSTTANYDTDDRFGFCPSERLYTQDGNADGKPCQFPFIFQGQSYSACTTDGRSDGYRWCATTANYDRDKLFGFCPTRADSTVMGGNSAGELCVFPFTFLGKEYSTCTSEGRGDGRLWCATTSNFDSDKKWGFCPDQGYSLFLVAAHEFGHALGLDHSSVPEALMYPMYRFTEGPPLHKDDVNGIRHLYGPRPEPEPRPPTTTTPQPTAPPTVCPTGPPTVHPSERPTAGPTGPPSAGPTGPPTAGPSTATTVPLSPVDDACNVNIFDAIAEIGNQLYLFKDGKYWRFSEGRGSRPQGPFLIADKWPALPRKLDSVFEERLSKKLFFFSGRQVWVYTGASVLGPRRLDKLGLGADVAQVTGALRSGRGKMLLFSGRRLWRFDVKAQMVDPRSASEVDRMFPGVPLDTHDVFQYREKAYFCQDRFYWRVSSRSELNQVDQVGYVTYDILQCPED
MMP-8, sequence (P22894 101-467, species assumed): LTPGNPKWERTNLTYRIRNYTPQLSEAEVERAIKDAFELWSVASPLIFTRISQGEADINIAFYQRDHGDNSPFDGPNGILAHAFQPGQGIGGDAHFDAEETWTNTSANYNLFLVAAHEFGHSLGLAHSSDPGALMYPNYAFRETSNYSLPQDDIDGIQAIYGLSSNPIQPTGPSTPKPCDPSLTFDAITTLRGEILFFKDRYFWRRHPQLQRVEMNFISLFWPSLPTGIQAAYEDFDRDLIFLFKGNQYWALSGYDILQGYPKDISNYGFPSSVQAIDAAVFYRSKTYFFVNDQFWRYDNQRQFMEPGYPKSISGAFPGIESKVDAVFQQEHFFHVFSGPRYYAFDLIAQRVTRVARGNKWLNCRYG
Cathepsin L, sequence (P07711 114-333, species assumed): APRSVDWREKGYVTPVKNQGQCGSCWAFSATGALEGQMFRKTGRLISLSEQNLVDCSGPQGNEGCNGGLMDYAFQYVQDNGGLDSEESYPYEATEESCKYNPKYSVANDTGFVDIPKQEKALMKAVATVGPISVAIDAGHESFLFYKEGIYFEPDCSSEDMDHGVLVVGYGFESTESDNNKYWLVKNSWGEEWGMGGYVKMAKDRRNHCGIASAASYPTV
Cathepsin C, sequence (P53634 25-463, species assumed): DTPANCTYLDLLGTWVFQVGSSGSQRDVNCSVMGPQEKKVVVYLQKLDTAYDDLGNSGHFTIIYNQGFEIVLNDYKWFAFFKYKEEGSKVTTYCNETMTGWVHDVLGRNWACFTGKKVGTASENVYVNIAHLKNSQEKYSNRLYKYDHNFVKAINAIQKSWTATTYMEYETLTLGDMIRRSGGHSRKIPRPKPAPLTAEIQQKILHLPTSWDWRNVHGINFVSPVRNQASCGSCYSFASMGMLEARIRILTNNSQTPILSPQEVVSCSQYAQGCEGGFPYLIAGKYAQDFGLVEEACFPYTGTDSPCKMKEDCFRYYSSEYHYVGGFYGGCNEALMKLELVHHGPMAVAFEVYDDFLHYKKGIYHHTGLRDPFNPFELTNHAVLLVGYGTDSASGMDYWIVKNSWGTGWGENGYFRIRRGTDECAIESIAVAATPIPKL
Cathepsin H, sequence (P09668 98-335, species assumed): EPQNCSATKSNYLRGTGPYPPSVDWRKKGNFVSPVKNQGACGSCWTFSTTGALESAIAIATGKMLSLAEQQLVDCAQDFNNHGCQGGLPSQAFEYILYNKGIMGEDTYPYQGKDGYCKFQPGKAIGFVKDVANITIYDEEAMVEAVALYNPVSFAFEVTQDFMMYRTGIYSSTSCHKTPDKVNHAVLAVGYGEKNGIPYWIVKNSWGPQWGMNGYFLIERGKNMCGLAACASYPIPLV
Cathepsin S, sequence (P25774 115-331, species assumed): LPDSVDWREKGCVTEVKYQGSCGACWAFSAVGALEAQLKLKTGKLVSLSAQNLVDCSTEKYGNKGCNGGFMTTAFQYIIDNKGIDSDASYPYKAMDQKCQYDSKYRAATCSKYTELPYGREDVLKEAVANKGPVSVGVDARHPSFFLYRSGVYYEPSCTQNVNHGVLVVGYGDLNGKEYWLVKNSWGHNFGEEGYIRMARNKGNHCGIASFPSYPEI
Cathepsin V, sequence (O60911 114-334): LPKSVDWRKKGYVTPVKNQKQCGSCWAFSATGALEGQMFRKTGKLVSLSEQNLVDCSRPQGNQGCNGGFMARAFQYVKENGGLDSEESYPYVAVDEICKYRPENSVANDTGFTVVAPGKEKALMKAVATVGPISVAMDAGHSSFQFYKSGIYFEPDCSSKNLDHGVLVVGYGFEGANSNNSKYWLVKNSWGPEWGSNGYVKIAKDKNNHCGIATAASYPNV
MMP-3, sequence (P08254 100-477, species assumed): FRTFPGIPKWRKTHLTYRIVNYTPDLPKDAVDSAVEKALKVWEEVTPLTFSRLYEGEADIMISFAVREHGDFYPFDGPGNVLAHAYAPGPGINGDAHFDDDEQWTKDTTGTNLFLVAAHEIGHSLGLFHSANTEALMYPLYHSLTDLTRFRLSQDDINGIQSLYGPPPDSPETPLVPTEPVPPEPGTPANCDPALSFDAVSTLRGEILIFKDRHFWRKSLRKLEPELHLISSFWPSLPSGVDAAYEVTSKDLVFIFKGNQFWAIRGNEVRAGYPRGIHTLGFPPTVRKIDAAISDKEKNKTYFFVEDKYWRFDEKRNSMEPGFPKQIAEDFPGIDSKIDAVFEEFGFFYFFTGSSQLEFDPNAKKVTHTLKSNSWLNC
MMP-1, sequence (P03956 100-469, species assumed): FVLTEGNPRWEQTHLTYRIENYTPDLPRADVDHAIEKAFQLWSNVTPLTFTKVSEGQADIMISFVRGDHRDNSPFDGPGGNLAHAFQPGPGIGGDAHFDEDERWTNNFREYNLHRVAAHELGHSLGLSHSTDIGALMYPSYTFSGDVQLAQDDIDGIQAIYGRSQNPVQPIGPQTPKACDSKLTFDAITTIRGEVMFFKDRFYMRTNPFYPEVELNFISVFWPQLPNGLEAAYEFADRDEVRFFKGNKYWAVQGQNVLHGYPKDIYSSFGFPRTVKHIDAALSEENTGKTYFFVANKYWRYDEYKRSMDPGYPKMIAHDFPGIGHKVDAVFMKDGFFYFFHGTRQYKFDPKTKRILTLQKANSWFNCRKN
MMP-2, sequence (P08253 110-660, species assumed): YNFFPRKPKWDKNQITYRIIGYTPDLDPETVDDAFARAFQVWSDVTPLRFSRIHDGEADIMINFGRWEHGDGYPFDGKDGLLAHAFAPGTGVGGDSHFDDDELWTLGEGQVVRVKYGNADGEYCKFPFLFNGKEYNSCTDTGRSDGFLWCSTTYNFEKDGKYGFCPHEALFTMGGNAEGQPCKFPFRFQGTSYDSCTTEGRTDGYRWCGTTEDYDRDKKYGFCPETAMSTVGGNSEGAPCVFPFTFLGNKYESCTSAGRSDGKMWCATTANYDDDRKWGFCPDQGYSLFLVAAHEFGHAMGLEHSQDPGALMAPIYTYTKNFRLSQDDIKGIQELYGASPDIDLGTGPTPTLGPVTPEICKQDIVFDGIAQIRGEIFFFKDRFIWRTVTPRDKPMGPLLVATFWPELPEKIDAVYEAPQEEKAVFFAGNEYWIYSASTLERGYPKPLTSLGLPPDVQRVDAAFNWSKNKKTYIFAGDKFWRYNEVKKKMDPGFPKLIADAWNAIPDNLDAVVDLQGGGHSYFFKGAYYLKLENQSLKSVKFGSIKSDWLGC

As to `CC[C@H](C)[C@@H]1NC(=O)[C@@H]2CSSC[C@H](NC(=O)[C@H](CCCNC(=N)N)NC(=O)[C@@H]3CSSC[C@H](NC1=O)C(=O)N[C@@H]([C@@H](C)O)C(=O)N[C@@H](CCCNC(=N)N)C(=O)NCC(=O)N[C@@H](Cc1ccccc1)C(=O)N3)C(=O)N[C@@H](CC(C)C)C(=O)N[C@H]1CSSC[C@H](NC(=O)[C@H](C(C)C)NC(=O)CNC(=O)[C@H](CCCNC(=N)N)NC(=O)[C@H](CCCNC(=N)N)NC1=O)C(=O)N[C@@H](CCCNC(=N)N)C(=O)N2` [RTD-1, rhesus θ-defensin 1] (cyclo(GFCRCLCRRGVCRCICTR); disulfide 3-16, 5-14, 7-12), the IC50 in data set [1] was 1 ± 0.1 µM; in data set [2], 3.7 ± 0.6 µM; in [3], more than 50 µM; in [4] (IC50, substrate z-FR-AMC 10 μM, enzyme 0.77 nM, RTD-1 0-50 μg/ml) it was 0.027 ± 0.02 µM; in [4] (IC50 against cathepsin K, as quoted in running text from Table 1), approximately 0.027 µM; in [5], 1.4 ± 0.3 µM. The IC50 is more than 50 µM in data set [6]; 1.8 ± 0.6 µM in data set [7]; more than 50 µM in data set [8]; 11 ± 0.4 µM in data set [9]; 7.8 ± 0.3 µM in data set [10]; 19.6 ± 0.04 µM in data set [11]. The results for the IC50 in [12], in [13] and in data set [14] were more than 50 µM, 12 ± 0.05 µM and 11.1 ± 0.2 µM, respectively. Further, the clearance in data set [15] (setting [20]) was 3.55 mL/h/kg. Further, the half-life in data set [15] (setting [20]) was 32.3 h. In [15] (setting [21]), this molecule registered a distribution clearance of 22.3 mL/h/kg. This molecule also had a distribution half-life in data set [15] (setting [21]) of 0.285 h. Also, the “humoral response (anti-RTD-1 Ig) by dot immunoblot” value in data set [16] is reported as “No anti-RTD-1 Ig was detected”. In addition, the “average reduction of joint IL-1β vs vehicle” value in data set [17] is 44%. Besides, the tolerability entry in data set [18] is on record as “well tolerated”. Also, the “stability in human plasma” value in [19] was “highly stable”.

The values are drawn from article PMC5690597, “Suppression and resolution of autoimmune arthritis by rhesus θ-defensin-1, an immunomodulatory macrocyclic peptide” (PLoS ONE, 2017).
